Measurements taken from US20260250251A1, “HETEROCYCLIC COMPOUNDS AS PI3Ka INHIBITORS” (Pikavation Therapeutics, Inc., priority 2022, published 2026).

Experiments:
[1] = test system: T47D (PIK3CA H1047R) cells, pSer473 AKT; assay: pS473 AKT assay in T47D cells; type: cell-based; conditions: Homo sapiens, treated 2 h, read-out: T47D_IC50
Experimental: (§1) SKBR3 (PIK3CA WT), MCF7 (PIK3CA E545K), and T47D (PIK3CA H1047R) cells were cultured using 10-cm petri dishes with recommended medium. One day before the assay, cells were seeded in 96-well plates. After overnight incubation, cells were treated with different concentrations of PI3Kα inhibitors for 2 h. Cells were then fixed using 4% paraformaldehyde at room temperature for 20 min. Cells were aspirated with 4% paraformaldehyde, and washed using 1× regular phosphate buffered saline 3 times, 5 min each. Any residual phosphate buffered saline was aspirated and cells were blocked using 10% goat serum containing 1% bovine serum albumin and 0.3% Triton X-100 at room temperature for 1 h. Without any additional washing, primary antibodies (rabbit anti-pSer473 AKT) were diluted using blocking buffer and added at a final volume of 50 microliter per well. Assay plates with primary antibodies were maintained overnight at 4° C. Cells were washed using 1× regular phosphate buffered saline 3 times, 5 min each. After the final wash, cells were incubated with horseradish peroxidase-conjugated secondary antibodies (goat Anti-rabbit IgG) and diluted using the same blocking buffer at room temperature for 1 h. Cells were then washed thoroughly using 1× regular phosphate buffered saline 3 times, 5 min each, and any residual phosphate buffered saline was aspirated. Super-Signal ELISA Pico Chemiluminescent Substrate was then added at a final volume of 100 microliter per well. Plates were read on a i3x Multi-Mode Microplate Reader and IC50 values calculated using GraphPad Prism software.
(§2) Results of the assay described above are presented in Table A. “++++” indicates an IC50 less than 1000 nM; “+++” indicates an IC50 greater than or equal to 1000 nM but less than 5000 nM; “++” indicates an IC50 greater than or equal to 5000 nM but less than 10000 nM; and “+” indicates an IC50 greater than or equal to 10000 nM.

[2] = test system: SKBR3 (PIK3CA WT) cells, pSer473 AKT; assay: pS473 AKT assay in SKBR3 cells; type: cell-based; conditions: Homo sapiens, SK-BR-3, treated 2 h, read-out: SKBR3_IC50
Experimental: as §1, §2

IC50 [1]	IC50 [2]	Structure (SMILES)
< 1000 nM	< 1000 nM	Nc1n[nH]c2c(CO)cc(NC(=O)c3cc(F)cc(C(F)(F)F)c3)c(Oc3cc(F)ccc3Cl)c12 [Example 23, N-(3-Amino-4-(2-chloro-5-fluorophenoxy)-7-(hydroxymethyl)-1H-indazol-5-yl)-3-fluoro-5-(trifluoromethyl)benzamide]
< 1000 nM	< 1000 nM	Cn1nc(N)c2c(Oc3cc(F)ccc3Cl)c(NC(=O)c3cc(F)cc(C(F)(F)F)c3)cc(Cl)c21 [Example 24, N-(3-Amino-7-chloro-4-(2-chloro-5-fluorophenoxy)-1-methyl-1H-indazol-5-yl)-3-fluoro-5-(trifluoromethyl)benzamide]
< 1000 nM	< 1000 nM	Cn1nc(N)c2c(Oc3cc(F)ccc3Cl)c(NC(=O)c3cc(F)cc(C(F)(F)F)c3)cc(Br)c21 [Example 25, N-(3-Amino-7-bromo-4-(2-chloro-5-fluorophenoxy)-1-methyl-1H-indazol-5-yl)-3-fluoro-5-(trifluoromethyl)benzamide]
< 1000 nM	1000 to 5000 nM	CC(C)n1cc(-c2cc(NC(=O)c3cc(F)cc(C(F)(F)F)c3)c(Oc3cc(F)ccc3Cl)c3c(N)nn(C)c23)cn1 [Example 26, N-(3-Amino-4-(2-chloro-5-fluorophenoxy)-7-(1-isopropyl-1H-pyrazol-4-yl)-1-methyl-1H-indazol-5-yl)-3-fluoro-5-(trifluoromethyl)benzamide]
< 1000 nM	1000 to 5000 nM	Cn1nc(N)c2c(Oc3cc(F)ccc3Cl)c(NC(=O)c3cc(F)cc(C(F)(F)F)c3)cc(-c3ccc(C(N)=O)cc3)c21 [Example 27, N-(3-Amino-7-(4-carbamoylphenyl)-4-(2-chloro-5-fluorophenoxy)-1-methyl-1H-indazol-5-yl)-3-fluoro-5-(trifluoromethyl)benzamide]
< 1000 nM	< 1000 nM	Cn1nc(N)c2c(Oc3cc(F)ccc3Cl)c(NC(=O)c3cc(F)cc(C(F)(F)F)c3)cc(-c3cnn(C4CCOC4)c3)c21 (stereo not shown) [Example 28, N-(3-Amino-4-(2-chloro-5-fluorophenoxy)-1-methyl-7-(1-(tetrahydrofuran-3-yl)-1H-pyrazol-4-yl)-1H-indazol-5-yl)-3-fluoro-5-(trifluoromethyl)benzamide]
< 1000 nM	1000 to 5000 nM	Cn1nc(N)c2c(Oc3cc(F)ccc3Cl)c(NC(=O)c3cc(F)cc(C(F)(F)F)c3)cc(-c3cncnc3)c21 [Example 29, N-(3-Amino-4-(2-chloro-5-fluorophenoxy)-1-methyl-7-(pyrimidin-5-yl)-1H-indazol-5-yl)-3-fluoro-5-(trifluoromethyl)benzamide]
< 1000 nM	< 1000 nM	Cn1nncc1-c1cc(NC(=O)c2cc(F)cc(C(F)(F)F)c2)c(Oc2cc(F)ccc2Cl)c2c(N)nn(C)c12 [Example 30, N-(3-Amino-4-(2-chloro-5-fluorophenoxy)-1-methyl-7-(1-methyl-1H-1,2,3-triazol-5-yl)-1H-indazol-5-yl)-3-fluoro-5-(trifluoromethyl)benzamide]
< 1000 nM	< 1000 nM	Cn1nc(N)c2c(Oc3cc(F)ccc3Cl)c(NC(=O)c3cc(F)cc(C(F)(F)F)c3)cc(CC#N)c21 [Example 31, N-(3-Amino-4-(2-chloro-5-fluorophenoxy)-7-(cyanomethyl)-1-methyl-1H-indazol-5-yl)-3-fluoro-5-(trifluoromethyl)benzamide]
< 1000 nM	< 1000 nM	Nc1nn2c3c(cc(NC(=O)c4cc(F)cc(C(F)(F)F)c4)c(Oc4cc(F)ccc4Cl)c13)NC(=O)C2 [Example 32, N-(6-Amino-7-(2-chloro-5-fluorophenoxy)-2-oxo-2,3-dihydro-1H-pyrazolo[1,5,4-de]quinoxalin-8-yl)-3-fluoro-5-(trifluoromethyl)benzamide]
< 1000 nM	1000 to 5000 nM	NC(=O)Cn1nc(N)c2c(Oc3cc(F)ccc3Cl)c(NC(=O)c3cc(F)cc(C(F)(F)F)c3)cc(Br)c21 [Example 33, N-(3-Amino-1-(2-amino-2-oxoethyl)-7-bromo-4-(2-chloro-5-fluorophenoxy)-1H-indazol-5-yl)-3-fluoro-5-(trifluoromethyl)benzamide]
< 1000 nM	1000 to 5000 nM	N#CCCn1nc(N)c2c(Oc3cc(F)ccc3Cl)c(NC(=O)c3cc(F)cc(C(F)(F)F)c3)cc(Cl)c21 [Example 34, N-(3-Amino-7-chloro-4-(2-chloro-5-fluorophenoxy)-1-(2-cyanoethyl)-1H-indazol-5-yl)-3-fluoro-5-(trifluoromethyl)benzamide]
< 1000 nM	1000 to 5000 nM	Cn1nc(NC(=O)CN)c2c(Oc3cc(F)ccc3Cl)c(NC(=O)c3cc(F)cc(C(F)(F)F)c3)cc(Cl)c21 [Example 35, N-(3-(2-Aminoacetamido)-7-chloro-4-(2-chloro-5-fluorophenoxy)-1-methyl-1H-indazol-5-yl)-3-fluoro-5-(trifluoromethyl)benzamide]
< 1000 nM	< 1000 nM	Nc1nn2c3c(cc(NC(=O)c4cc(F)cc(C(F)(F)F)c4)c(Oc4cc(F)ccc4Cl)c13)CNC(=O)C2 [Example 36, N-(2-Amino-3-(2-chloro-5-fluorophenoxy)-8-oxo-6,7,8,9-tetrahydro-[1,4]diazepino[6,7,1-hi]indazol-4-yl)-3-fluoro-5-(trifluoromethyl)benzamide]
< 1000 nM	1000 to 5000 nM	Cn1nc(N)c2c(Oc3cc(F)ccc3Cl)c(NC(=O)c3cc(F)cc(C(F)(F)F)c3)cc(C#Cc3ccccn3)c21 [Example 37, N-(3-Amino-4-(2-chloro-5-fluorophenoxy)-1-methyl-7-(pyridin-2-ylethynyl)-1H-indazol-5-yl)-3-fluoro-5-(trifluoromethyl)benzamide]
< 1000 nM	1000 to 5000 nM	Cn1nc(N)c2c(Oc3cc(F)ccc3Cl)c(NC(=O)c3cc(F)cc(C(F)(F)F)c3)cc(C#CC3CCOCC3)c21 [Example 38, N-(3-Amino-4-(2-chloro-5-fluorophenoxy)-1-methyl-7-((tetrahydro-2H-pyran-4-yl)ethynyl)-1H-indazol-5-yl)-3-fluoro-5-(trifluoromethyl)benzamide]
< 1000 nM	1000 to 5000 nM	Cn1nc(N)c2c(Oc3cc(F)ccc3Cl)c(NC(=O)c3cc(F)cc(C(F)(F)F)c3)cc(C#CC(C)(C)O)c21 [Example 39, N-(3-Amino-4-(2-chloro-5-fluorophenoxy)-7-(3-hydroxy-3-methylbut-1-yn-1-yl)-1-methyl-1H-indazol-5-yl)-3-fluoro-5-(trifluoromethyl)benzamide]
< 1000 nM	< 1000 nM	Cn1nc(N)c2c(Oc3cc(F)ccc3Cl)c(NC(=O)c3cc(F)cc(C(F)(F)F)c3)cc(C#CC(C)(C)N)c21 [Example 40, N-(3-Amino-7-(3-amino-3-methylbut-1-yn-1-yl)-4-(2-chloro-5-fluorophenoxy)-1-methyl-1H-indazol-5-yl)-3-fluoro-5-(trifluoromethyl)benzamide]
< 1000 nM	1000 to 5000 nM	Cn1nc(N)c2c(Oc3cc(F)ccc3Cl)c(NC(=O)c3cc(F)cc(C(F)(F)F)c3)cc(C#CC3CCOC3)c21 (stereo not shown) [Example 41, N-(3-Amino-4-(2-chloro-5-fluorophenoxy)-1-methyl-7-((tetrahydrofuran-3-yl)ethynyl)-1H-indazol-5-yl)-3-fluoro-5-(trifluoromethyl)benzamide]
< 1000 nM	1000 to 5000 nM	Cn1nc(N)c2c(Oc3cc(F)ccc3Cl)c(NC(=O)c3cc(F)cc(C(F)(F)F)c3)cc(C#CC3CC3)c21 [Example 42, N-(3-Amino-4-(2-chloro-5-fluorophenoxy)-7-(cyclopropylethynyl)-1-methyl-1H-indazol-5-yl)-3-fluoro-5-(trifluoromethyl)benzamide]
< 1000 nM	< 1000 nM	Cn1nc(N)c2c(Oc3cc(F)ccc3Cl)c(NC(=O)c3cc(F)cc(C(F)(F)F)c3)cc(C#CC3(O)CC3)c21 [Example 43, N-(3-Amino-4-(2-chloro-5-fluorophenoxy)-7-((1-hydroxycyclopropyl)ethynyl)-1-methyl-1H-indazol-5-yl)-3-fluoro-5-(trifluoromethyl)benzamide]
< 1000 nM	< 1000 nM	Cn1nc(N)c2c(Oc3cc(F)ccc3Cl)c(NC(=O)c3cc(F)cc(C(F)(F)F)c3)cc(C#CC3(CO)CC3)c21 [Example 44, N-(3-Amino-4-(2-chloro-5-fluorophenoxy)-7-((1-(hydroxymethyl)cyclopropyl)ethynyl)-1-methyl-1H-indazol-5-yl)-3-fluoro-5-(trifluoromethyl)benzamide]
< 1000 nM	< 1000 nM	Cn1nc(N)c2c(Oc3cc(F)ccc3Cl)c(NC(=O)c3cc(F)cc(C(F)(F)F)c3)cc(C#CC3(N)CC3)c21 [Example 45, N-(3-Amino-7-((1-aminocyclopropyl)ethynyl)-4-(2-chloro-5-fluorophenoxy)-1-methyl-1H-indazol-5-yl)-3-fluoro-5-(trifluoromethyl)benzamide]
